Test results published in patent US20200017496A1 (priority 2017, published 2020).

Experiments:
Assay type in all cases: cell-based
[1] = tested on: Proteus mirabilis (PMI) isolates; assay: microbe, parasite or virus in culture; conditions: AF1 @ 4 μg/mL
Summary of the method: (§1)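 Inoculum 5·10^5 CFU/mL (final), log phase, ca-MHB; 16-20 h, 35° C, ambient air. MIC = lowest conc. with no visible growth; ATB MIC read at each compound level.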

[2] = tested on: Citrobacter freundii (CFR) isolates; assay: MIC of compounds alone and combined with antibacterials, broth microdilution (CLSI)
Summary of the method: as §1

[3] = tested on: Morganella morganii (MMO) isolates; assay: as above; conditions: AF1 @ 4 μg/mL
Summary of the method: as §1

[4] = tested on: Providencia rettgeri (PRE) isolates; assay: as above
Summary of the method: as §1

[5] = tested on: Serratia marcescens (SMA) isolates; assay: as above
Summary of the method: as §1

## COCC1=C(C(=O)O)N2C(=O)[C@@H](NC(=O)/C(=N\OC)c3csc(N)n3)[C@H]2SC1 [POD, Cefpodoxime]
[1]; PMI UFR82
  MIC ATB in combination: 1 µg/mL
[1]; PMI UFR120
  MIC ATB in combination: <=0.25 μg/mL
[1]; PMI UFR121
  MIC ATB in combination: <=0.25 μg/mL
[1]; PMI UFR122
  MIC ATB in combination: <=0.25 μg/mL
[1]; PMI UFR123
  MIC ATB in combination: <=0.25 μg/mL
[1]; PMI UFR124
  MIC ATB in combination: <=0.25 μg/mL
[1]; PMI UFR125
  MIC ATB in combination: <=0.25 μg/mL
[1]; PMI UFR126
  MIC ATB in combination: <=0.25 μg/mL
[1]; PMI UFR127
  MIC ATB in combination: <=0.25 μg/mL
[1]; PMI UFR129
  MIC ATB in combination: <=0.25 μg/mL
[1]; PMI UFR130
  MIC ATB in combination: 0.5 µg/mL
[1]; PMI UFR237
  MIC ATB in combination: <=0.25 μg/mL
[2]; CFR UFR10, AF1 @ 4 μg/mL
  MIC ATB in combination: <=0.25 μg/mL
[2]; CFR UFR11, AF1 @ 4 μg/mL
  MIC ATB in combination: 16 µg/mL
[2]; CFR UFR83, AF1 @ 4 μg/mL
  MIC ATB in combination: >128 µg/mL
[2]; CFR UFR146, AF1 @ 4 μg/mL
  MIC ATB in combination: 1 µg/mL
[2]; CFR UFR248, AF1 @ 4 μg/mL
  MIC ATB in combination: 1 µg/mL
[2]; CFR UFR249, AF1 @ 4 μg/mL
  MIC ATB in combination: <=0.25 μg/mL
[2]; CFR UFR250, AF1 @ 4 μg/mL
  MIC ATB in combination: 0.5 µg/mL
[2]; strain CFR UFR253, antibacterial combined with AF1 @ 4 μg/mL
  MIC ATB in combination: <=0.25 μg/mL
[2]; strain CFR UFR254, antibacterial combined with AF1 @ 4 μg/mL
  MIC ATB in combination: <=0.25 μg/mL
[3]; MMO 200321
  MIC ATB in combination: 2 µg/mL
[3]; MMO UFR144
  MIC ATB in combination: 2 µg/mL
[3]; MMO UFR240
  MIC ATB in combination: <=0.25 μg/mL
[3]; MMO UFR241
  MIC ATB in combination: 2 µg/mL
[3]; MMO UFR242
  MIC ATB in combination: 4 µg/mL
[3]; MMO UFR243
  MIC ATB in combination: 4 µg/mL
[3]; MMO UFR244
  MIC ATB in combination: <=0.25 μg/mL
[3]; MMO UFR245
  MIC ATB in combination: 2 µg/mL
[3]; MMO UFR246
  MIC ATB in combination: 4 µg/mL
[3]; MMO UFR247
  MIC ATB in combination: 1 µg/mL
[4]; PRE UFR99, AF1 @ 4 μg/mL
  MIC ATB in combination: >128 µg/mL
[4]; strain PRE UFR236, antibacterial combined with AF1 @ 4 μg/mL
  MIC ATB in combination: 1 µg/mL
[5]; SMA UFR30, AF1 @ 4 μg/mL
  MIC ATB in combination: 0.5 µg/mL
[5]; SMA UFR134, AF1 @ 4 μg/mL
  MIC ATB in combination: 2 µg/mL
[5]; SMA UFR135, AF1 @ 4 μg/mL
  MIC ATB in combination: 4 µg/mL
[5]; SMA UFR136, AF1 @ 4 μg/mL
  MIC ATB in combination: 8 µg/mL
[5]; SMA UFR137, AF1 @ 4 μg/mL
  MIC ATB in combination: 0.5 µg/mL
[5]; SMA UFR138, AF1 @ 4 μg/mL
  MIC ATB in combination: 0.5 µg/mL
[5]; SMA UFR139, AF1 @ 4 μg/mL
  MIC ATB in combination: 2 µg/mL
[5]; SMA UFR141, AF1 @ 4 μg/mL
  MIC ATB in combination: 2 µg/mL
[5]; SMA UFR142, AF1 @ 4 μg/mL
  MIC ATB in combination: 1 µg/mL
[5]; SMA UFR143, AF1 @ 4 μg/mL
  MIC ATB in combination: 1 µg/mL
[5]; SMA UFR239, AF1 @ 4 μg/mL
  MIC ATB in combination: 2 µg/mL
[5]; strain SMA UFR238, antibacterial combined with AF1 @ 4 μg/mL
  MIC ATB in combination: 2 µg/mL
